The target in this assay is T1, PpGRXC5 (Physcomitrium patens, UniProt A0A2K1KTP0).
T1 construct: gene LOC112280307; targeting peptide removed, starts at Ala120 to native stop; Gateway vector pETG-10A, E. coli Rosetta2; tag not described; active site YCPYC
T1 sequence (A0A2K1KTP0 120-228): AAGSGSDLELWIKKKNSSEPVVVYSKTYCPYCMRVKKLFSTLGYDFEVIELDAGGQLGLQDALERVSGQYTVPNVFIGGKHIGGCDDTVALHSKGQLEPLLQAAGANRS
Briefly: HED assay, GR-coupled NADPH oxidation at […] nm. Type of assay: biochemical. The conditions noted are these: 0.3-1.5 mM HED varied, 1 mM GSH constant, 200 uM NADPH, yeast GR, 30 nM enzyme, 100 mM Tris-HCl, 1 mM EDTA, pH 7.9; actual substrate is the glutathione-mercaptoethanol mixed disulfide; read-out: Km^app.

Turning to `OCCSSCCO` [HED, bis(2-hydroxyethyl)disulfide], the Km (as a rule, the substrate concentration at which the rate is half of its maximum) was 390 ± 110 µM.

The values above are taken from paper PMC10808970, “Chloroplasts lacking class I glutaredoxins are functional but show a delayed recovery of protein cysteinyl redox state after oxidative challenge” (Redox Biology, 2023).
